Consider 36 compounds from ChEMBL document CHEMBL5614426 (J Med Chem, 2024).

Each structure is given as a SMILES string. A value given as a limit tells only on which side of the number the result lay.

Experiment [1] has as its target T1, Histone-lysine N-methyltransferase EHMT2 (Homo sapiens) (UniProt Q96KQ7).
T1 sequence (whole entry): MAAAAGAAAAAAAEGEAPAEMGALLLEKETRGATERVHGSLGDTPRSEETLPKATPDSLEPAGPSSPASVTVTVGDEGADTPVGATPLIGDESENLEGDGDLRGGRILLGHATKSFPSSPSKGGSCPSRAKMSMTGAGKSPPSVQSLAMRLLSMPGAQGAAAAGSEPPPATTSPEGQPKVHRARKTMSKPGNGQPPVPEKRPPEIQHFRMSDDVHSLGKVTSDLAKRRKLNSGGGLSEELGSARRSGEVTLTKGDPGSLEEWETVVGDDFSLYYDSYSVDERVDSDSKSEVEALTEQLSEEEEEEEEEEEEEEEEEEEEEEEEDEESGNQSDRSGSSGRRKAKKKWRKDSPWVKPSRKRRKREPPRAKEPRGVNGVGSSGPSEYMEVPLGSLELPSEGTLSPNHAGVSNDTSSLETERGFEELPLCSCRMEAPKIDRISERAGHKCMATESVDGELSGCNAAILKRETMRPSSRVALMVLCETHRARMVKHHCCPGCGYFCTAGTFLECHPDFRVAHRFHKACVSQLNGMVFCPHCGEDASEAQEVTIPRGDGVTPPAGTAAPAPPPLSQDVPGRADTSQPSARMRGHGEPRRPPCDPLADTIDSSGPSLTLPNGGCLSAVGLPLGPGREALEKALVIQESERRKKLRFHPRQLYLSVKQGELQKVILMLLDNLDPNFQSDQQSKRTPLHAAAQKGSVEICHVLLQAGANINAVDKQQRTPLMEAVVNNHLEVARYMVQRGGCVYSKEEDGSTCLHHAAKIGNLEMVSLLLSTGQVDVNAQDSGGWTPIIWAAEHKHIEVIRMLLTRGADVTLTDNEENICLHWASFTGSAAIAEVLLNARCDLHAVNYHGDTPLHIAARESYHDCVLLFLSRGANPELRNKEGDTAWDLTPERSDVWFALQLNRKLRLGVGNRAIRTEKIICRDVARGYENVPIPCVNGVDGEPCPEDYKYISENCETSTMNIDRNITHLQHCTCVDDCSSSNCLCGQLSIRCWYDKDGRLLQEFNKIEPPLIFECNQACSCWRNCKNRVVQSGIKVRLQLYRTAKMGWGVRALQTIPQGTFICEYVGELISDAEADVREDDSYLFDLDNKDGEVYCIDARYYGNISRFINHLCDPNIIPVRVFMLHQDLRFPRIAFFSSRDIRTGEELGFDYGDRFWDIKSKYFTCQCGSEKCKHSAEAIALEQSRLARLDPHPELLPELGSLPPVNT
As to the kind of experiment: Inhibition of G9a (unknown origin) at 10 uM by AlphaLISA assay relative to control.

Experiment [2] deals with T2, Histone-lysine N-methyltransferase NSD2 (Homo sapiens, UniProt O96028).
T2 sequence (O96028 whole entry): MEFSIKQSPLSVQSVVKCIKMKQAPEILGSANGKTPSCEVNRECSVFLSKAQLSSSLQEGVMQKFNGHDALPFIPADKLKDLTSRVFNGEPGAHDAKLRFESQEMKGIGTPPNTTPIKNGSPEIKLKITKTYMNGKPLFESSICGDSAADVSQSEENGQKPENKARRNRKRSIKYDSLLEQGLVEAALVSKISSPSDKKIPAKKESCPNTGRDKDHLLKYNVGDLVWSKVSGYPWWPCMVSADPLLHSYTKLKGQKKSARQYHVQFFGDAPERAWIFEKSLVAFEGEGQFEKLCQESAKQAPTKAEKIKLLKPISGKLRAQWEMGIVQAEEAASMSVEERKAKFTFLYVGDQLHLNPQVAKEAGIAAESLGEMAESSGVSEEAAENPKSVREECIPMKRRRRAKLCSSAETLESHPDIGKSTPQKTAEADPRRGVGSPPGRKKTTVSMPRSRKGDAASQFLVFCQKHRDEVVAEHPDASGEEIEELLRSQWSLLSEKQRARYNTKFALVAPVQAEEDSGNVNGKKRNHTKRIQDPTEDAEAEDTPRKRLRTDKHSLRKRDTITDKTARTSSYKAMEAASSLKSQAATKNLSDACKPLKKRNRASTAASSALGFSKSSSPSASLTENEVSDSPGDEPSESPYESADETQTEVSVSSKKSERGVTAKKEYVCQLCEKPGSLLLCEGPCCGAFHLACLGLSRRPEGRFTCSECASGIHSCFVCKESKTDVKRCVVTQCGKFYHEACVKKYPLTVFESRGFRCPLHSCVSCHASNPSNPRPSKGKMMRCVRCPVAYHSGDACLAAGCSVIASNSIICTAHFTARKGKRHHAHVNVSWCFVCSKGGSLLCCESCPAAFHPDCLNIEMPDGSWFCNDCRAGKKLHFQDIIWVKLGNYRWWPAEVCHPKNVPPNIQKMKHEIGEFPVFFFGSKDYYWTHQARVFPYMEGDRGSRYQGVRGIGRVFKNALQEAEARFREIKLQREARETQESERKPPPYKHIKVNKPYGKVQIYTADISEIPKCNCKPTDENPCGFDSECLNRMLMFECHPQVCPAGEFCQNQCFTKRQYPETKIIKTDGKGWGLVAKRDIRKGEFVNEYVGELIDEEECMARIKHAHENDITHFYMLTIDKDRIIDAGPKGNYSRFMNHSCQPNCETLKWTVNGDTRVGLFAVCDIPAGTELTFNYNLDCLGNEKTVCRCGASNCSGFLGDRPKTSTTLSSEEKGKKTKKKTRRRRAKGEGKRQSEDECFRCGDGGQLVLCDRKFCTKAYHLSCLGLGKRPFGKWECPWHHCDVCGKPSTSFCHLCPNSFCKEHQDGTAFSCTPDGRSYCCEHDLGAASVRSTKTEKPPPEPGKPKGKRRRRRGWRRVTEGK
As to the kind of experiment: Inhibition of recombinant human NSD2 (941 to 1240 residues) using unmethylated histone H3 as substrate incubated for 40 mins in the presence of SAM and nucleosomes by AlphaLISA method. (In general: Alpha assays give light when donor and acceptor beads are brought close together.)

For experiment [3], the target named is T1, Histone-lysine N-methyltransferase EHMT2 (Homo sapiens). As to the kind of experiment: Inhibition of G9a (unknown origin) at 1 uM by AlphaLISA assay relative to control.

With `COc1cc2nc(N3CCCCC3)nc(NC3CCN(Cc4ccccc4)CC3)c2cc1OC`, the values for the inhibition in experiment [1] and in experiment [3] were 99.2% and 98%, respectively. For the same compound, in experiment [2], the IC50 (in general, the concentration that gives 50% inhibition) is greater than 5000 nM. For `COc1cc2nc(N)nc(NC3CCN(Cc4ccccc4)CC3)c2cc1OC` the same measures were 99.6%, 99.1% and 1550 nM.

Turning to `COc1cc2nc(C#N)nc(NC3CCN(C4CCCCC4)CC3)c2cc1OC`, the IC50 in experiment [2] came to 1200 nM.

Take `COc1cc2nc(C#N)nc(NC3CCN(C(=O)OC(C)(C)C)CC3)c2cc1OC`: in experiment [2], the IC50 is 3330 nM. The same measure, in the same setting: in the case of `COCCOc1cc2nc(C#N)nc(NC3CCN(C(C)C)CC3)c2cc1OC` it was 29 nM.

As to `COc1cc2nc(C#N)nc(N(C)C3CCN(C)CC3)c2cc1OC`, in experiment [2], the IC50 came out at 3760 nM. The same measure, in the same setting: in the case of `COc1cc2nc(C#N)nc(N3CCN(C)CC3)c2cc1OC` it was 4300 nM; in that of `COc1cc2c(NC3CCN(C(C)C)CC3)nc(C#N)nc2cc1OCCCN1CCC(F)(F)CC1`, 32 nM.

Consider `CCCN1CCC(Nc2nc(C#N)nc3cc(OC)c(OC)cc23)CC1`, for which the IC50 in experiment [2] worked out at 569 nM.

On to `COc1cc2nc(C#N)nc(NC3CCN(C)CC3)c2cc1OC`, for which, in experiment [2], the IC50 was 204 nM.

On to `COc1cc2nc(-c3ccccc3)nc(NC3CCN(Cc4ccccc4)CC3)c2cc1OC`, for which the inhibition (commonly how much of the control response was suppressed) in experiment [1] amounted to 99.2%; in experiment [3], 29.9%. Besides, the IC50 in experiment [2] is greater than 5000 nM. For the compound `COc1cc2nc(C#N)nc(NC3CCNCC3)c2cc1OC`, in experiment [2], the IC50 is 1410 nM. As for `COc1cc2nc(C#N)nc(NC3CCCCC3)c2cc1OC`, in experiment [2], the IC50 amounted to 4570 nM.

Take `COc1cc2c(NC3CCN(C(C)C)CC3)nc(C#N)nc2cc1OCc1ccccc1`: in experiment [2], the IC50 turned out to be 49 nM. The same measure, in the same setting: as for `COc1cc2c(NC3CCN(C(C)C)CC3)nc(C#N)nc2cc1OCCN1CCOCC1`, the figure is 44 nM; as for `CCN1CCC(Nc2nc(C#N)nc3cc(OC)c(OC)cc23)CC1`, 1510 nM; as for `COc1ccc2nc(C#N)nc(NC3CCN(C(C)C)CC3)c2c1`, 85 nM. Consider `COc1cc2nc(C#N)nc(NC3CCN(C(C)=O)CC3)c2cc1OC`, for which the IC50 in experiment [2] amounted to 2780 nM. As to `COc1cc2nc(C#N)nc(NC3CCN(C4CC4)CC3)c2cc1OC`, the IC50 in experiment [2] was 45 nM. On the same count and under the same terms, in the case of `COc1cc2nc(C#N)nc(Nc3ccc(N4CCN(C)CC4)cc3)c2cc1OC` it was 3150 nM.

For the compound `CNc1nc(NC2CCN(Cc3ccccc3)CC2)c2cc(OC)c(OC)cc2n1`, the inhibition in experiment [1] turned out to be 99.4%; in experiment [3], 99.5%. Further, the IC50 in experiment [2] was determined as 1510 nM. For `COc1cc2nc(N3CCCN(C)CC3)nc(NC3CCN(Cc4ccccc4)CC3)c2cc1OC` the same measures were 98.8%, 98.3% and 1730 nM. As to `CC#CC(=O)NC12CC(NC3=C(Cl)C(=O)c4ncccc4C3=O)(C1)C2`, the IC50 in experiment [2] is 243 nM. For the compound `CC(C)N1CCC(Nc2nc(C#N)nc3ccccc23)CC1`, the IC50 in experiment [2] came out at 377 nM.

For `COc1cc2c(NC3CCN(C(C)C)CC3)nc(C#N)nc2cc1OCCCN1CCC(F)(F)C1`, in experiment [2], the IC50 amounted to 38 nM. For the compound `COc1cc2ncnc(NC3CCN(Cc4ccccc4)CC3)c2cc1OC`, the inhibition in experiment [1] came out at 82.4%; in experiment [3] it was 27.4%. In addition, the IC50 in experiment [2] is 1450 nM.

Consider `COc1cc2c(NC3CCN(C(C)C)CC3)nc(C#N)nc2cc1O`, for which the IC50 in experiment [2] was 60 nM.

For the compound `COc1cc2nc(N3CCOCC3)nc(NC3CCN(Cc4ccccc4)CC3)c2cc1OC`, the inhibition in experiment [1] was 98.5%; in experiment [3], 98.7%. The IC50 in experiment [2] is greater than 5000 nM. As for `COc1cc2nc(C#N)nc(NC3CCN(Cc4ccccc4)CC3)c2cc1OC`, the inhibition in experiment [1] was found to be 5.6%; in experiment [3] it was 2.8%. For `COc1cc2nc(C#N)nc(NC3CCOCC3)c2cc1OC`, the IC50 in experiment [2] is 4900 nM.

Regarding `COc1cc2nc(N(C)C)nc(NC3CCN(Cc4ccccc4)CC3)c2cc1OC`, the inhibition is 99.1% in experiment [1] and 99.6% in experiment [3]. The IC50 in experiment [2] was 1510 nM. `COc1cc2nc(C#N)nc(OC3CCN(C)CC3)c2cc1OC`: the IC50 in experiment [2] was found to be 2520 nM. On the same count and under the same terms, in the case of `COc1cc2nc(C#N)nc(NC3CCCC3)c2cc1OC` it was greater than 5000 nM. In the case of `COc1cc2nc(CN)nc(NC3CCN(Cc4ccccc4)CC3)c2cc1OC`, the inhibition in experiment [1] was 95.4%; in experiment [3], 34.8%. For the same compound, the IC50 in experiment [2] was determined as 1410 nM. For `COc1ccc2c(NC3CCN(C(C)C)CC3)nc(C#N)nc2c1`, in experiment [2], the IC50 worked out at 271 nM.

For `COc1cc2nc(C#N)nc(NCC3CCN(C)CC3)c2cc1OC`, in experiment [2], the half-inhibitory concentration (IC50) was found to be 2430 nM.
